From PubChem BioAssay (NCI)
“And” between values parts separate entries of the source, which are not always exact repeats. Equal values may be shown once.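 Method: 48-hour compound exposure of cells in 96-well plates, five concentrations, linear interpolation of endpoints. GI50: concentration for 50% inhibition of growth. The concentration for full growth arrest is given as TGI.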

How the values were obtained:
Test in all cases: NCI anticancer screen, dose series, 48 h
HCT-15 colon = tested on: HCT-15 colon
KM12 colon = tested on: KM12 colon
MOLT-4 leukemia = tested on: MOLT-4 leukemia
OVCAR-4 ovarian = tested on: OVCAR-4 ovarian
RXF 393 renal = tested on: RXF 393 renal
SK-MEL-28 melanoma = tested on: SK-MEL-28 melanoma
SK-MEL-5 melanoma = tested on: SK-MEL-5 melanoma
UACC-62 melanoma = tested on: UACC-62 melanoma
COLO 205 colon = tested on: COLO 205 colon
DU-145 prostate = tested on: DU-145 prostate

Row | SMILES | TGI (HCT-15 colon) | TGI (KM12 colon) | TGI (MOLT-4 leukemia) | TGI (OVCAR-4 ovarian) [µM] | TGI (RXF 393 renal) | TGI (SK-MEL-28 melanoma) | TGI (SK-MEL-5 melanoma) | TGI (UACC-62 melanoma) | TGI (COLO 205 colon) | GI50 (COLO 205 colon) [µM] | GI50 (DU-145 prostate) [µM] | TGI (DU-145 prostate) [µM] | GI50 (HCT-15 colon) [µM] | GI50 (KM12 colon) [µM] | GI50 (MOLT-4 leukemia) [µM] | GI50 (OVCAR-4 ovarian) [µM] | GI50 (SK-MEL-28 melanoma) [µM] | GI50 (SK-MEL-5 melanoma) [µM] | GI50 (UACC-62 melanoma) [µM] | GI50 (RXF 393 renal) [µM]
1 | O=[N+]([O-])c1ccc(/C=C/c2ccc(/C=C/c3ccc([N+](=O)[O-])cc3[N+](=O)[O-])cc2)c([N+](=O)[O-])c1 | > 100 µM | > 100 µM | > 100 µM | > 100 | > 100 µM | > 100 µM | > 100 µM | > 100 µM |  |  |  |  |  |  |  |  |  |  |  | 
2 | C/C(=C\c1ccccc1)C(O)C(=O)c1nc2ccc(Cl)cc2[nH]c1=O (configuration not stated) | > 100 µM | > 100 µM | > 100 µM | > 100 |  | > 100 µM | > 100 µM | > 100 µM | > 100 µM |  |  |  |  |  |  |  |  |  |  | 
3 | CN(C)CCNC(=O)c1cccc2c1nc(-c1cccnc1)c1ccccc12 | 20.1 µM | 46.5 µM | 6.32 µM | 18.4 | 17.1 µM | 23.6 µM | 15.1 µM | 15.2 µM | 16.4 µM |  |  |  |  |  |  |  |  |  |  | 
4 | C/C(=C\c1csc(C)n1)[C@@H]1C[C@@H]2O[C@]2(C)CCC[C@H](C)[C@H](O)[C@@H](C)C(=O)C(C)(C)[C@@H](O)CC(=O)N1 | 0.000344 µM | 0.000354 µM | 0.000214 µM | 0.000821 |  | 0.000436 µM | 0.000337 µM | 0.000412 µM | 0.000438 µM | 0.000182 | 0.000166 | 0.000254 | 0.000152 | 0.000141 | 0.000115 | 0.000318 | 0.000219 | 0.000137 | 0.000171 | 
5 | CC(C)(C)C1CCC(O)(c2ccccc2)CC1 (configuration not stated) | > 100 µM and 52.4 µM | > 100 µM and 63.6 µM | > 100 µM and 39.5 µM |  | > 100 µM and 41.8 µM | > 100 µM and 64.5 µM | > 100 µM and 28.5 µM | > 100 µM and 45.1 µM | > 100 µM and 31.7 µM |  |  |  |  |  |  |  |  |  |  | 
6 | ON1CCc2c([nH]c3ccccc23)C1c1ccc(Cl)cc1 (configuration not stated) |  | 92.9 µM | 79.7 µM |  | 60.3 µM | > 100 µM |  | > 100 µM | 80.8 µM |  |  |  |  |  |  |  |  |  |  | 
7 | CC(C)(C)C1CC[C@H]2c3c([nH]c4ccccc34)[C@H]3C(=O)N(c4ccc(F)cc4)C(=O)[C@H]3[C@H]2C1 (some centres not stated) | > 100 µM | 27.8 µM | 27.8 µM | 23.7 | 43.9 µM | 46.5 µM | 35.8 µM | 29.6 µM | 30.4 µM |  |  |  |  |  |  |  |  |  |  | 
8 | O=C(/C=C(\[O-])c1ccccc1)CCCCCCC(=O)/C=C(\[O-])c1ccccc1.O=C(/C=C(\[O-])c1ccccc1)CCCCCCC(=O)/C=C(\[O-])c1ccccc1.O=C(/C=C(\[O-])c1ccccc1)CCCCCCC(=O)/C=C(\[O-])c1ccccc1.[Y+3].[Y+3] |  | > 50 µM | > 50 µM | > 50 | 37.4 µM | > 50 µM | > 50 µM | > 50 µM | > 50 µM | > 50 |  |  |  | > 50 | 26.9 | 14.2 | > 50 | 34.8 | 47.5 | 11
9 | COc1ccc2cc3n(c(=O)c2c1)CCc1c-3cc(OC)c(OC)c1OC | > 100 µM |  | > 100 µM | > 100 |  | > 100 µM | > 100 µM | > 100 µM | > 100 µM |  |  |  |  |  |  |  |  |  |  | 
10 | COC(=O)C1CC(=O)O[C@H]1c1ccc(OC)c(OC)c1 (some centres not stated) | > 100 µM | > 100 µM | > 100 µM | > 100 | > 100 µM | > 100 µM | > 100 µM | > 100 µM | > 100 µM |  |  |  |  |  |  |  |  |  |  | 
11 | CCCCC(C(=O)C(=O)Nc1ccccc1CC)C(=O)C(C)C (configuration not stated) | > 100 µM | > 100 µM | > 100 µM | > 100 |  |  | > 100 µM | > 100 µM | > 100 µM |  |  |  |  |  |  |  |  |  |  | 
12 | COc1ccc(-c2c(Nc3ccccn3)nc3c(C4=CCCCC4)c(-c4ccccc4)[nH]n3c2=O)cc1 | > 100 µM | > 100 µM |  | > 100 | 11.6 µM | > 100 µM | > 100 µM | 16.2 µM | > 100 µM | 2.34 | 3.62 | > 100 | 1.64 | 3.7 |  | 2.31 | 4.55 | 2.67 | 2.2 | 2.55
13 | N#Cc1c(CC(=O)O)cc(=O)n2c1[nH]c1ccccc12 | > 100 µM | > 100 µM | > 100 µM | > 100 | > 100 µM | > 100 µM | > 100 µM |  | > 100 µM |  |  |  |  |  |  |  |  |  |  | 
14 | COc1cc2c(cc1C)NC(=O)/C2=C\c1ccc(Oc2ccccc2)cc1 | 24.5 µM | 30.4 µM |  | 29.9 | 40.6 µM | 29.5 µM | 27.9 µM | 26 µM | 36.9 µM | 20.7 | 13.2 | 26 | 12.1 | 13.6 |  | 16.4 | 15.7 | 14.5 | 11.9 | 19.4
15 | COc1cc(/C=C/C(=O)c2nc3cc(F)ccc3nc2C)cc(OC)c1OC | > 100 µM | > 100 µM | > 22.3 µM | > 100 |  | > 60.3 µM | > 100 µM | > 100 µM | > 100 µM | 7.56 | 3.09 | > 100 | 2.94 | 3.49 | 1.99 | > 40.7 | 7.91 | 5.04 | 5.57 | 
16 | O=C1c2ccccc2C2(O)N(c3ccccc3)C(=S)N(c3ccccc3)C12O (configuration not stated) | > 100 µM | > 100 µM | > 100 µM | > 100 | > 100 µM | > 100 µM | > 100 µM | > 100 µM | > 100 µM |  |  |  |  |  |  |  |  |  |  | 
17 | CN(C)c1ccc(/C=c2/sc3nc(=O)c(-c4ccccc4NC(=O)C(F)(F)F)nn3c2=O)cc1 |  | > 100 µM | > 100 µM | > 100 | > 100 µM | > 100 µM | > 100 µM | > 100 µM | > 100 µM |  |  |  |  |  |  |  |  |  |  | 
18 | O=C1c2ccccc2N1C(=O)c1ccccc1[N+](=O)[O-] | > 100 µM | > 100 µM | > 100 µM | > 100 |  | > 100 µM | > 100 µM | > 100 µM | > 100 µM |  |  | > 100 |  |  |  |  |  |  |  | 
19 | O=c1c2cc(Br)ccc2nc(CNc2ccccc2)n1-c1ccccc1 | > 47.9 µM | > 100 µM | > 67.7 µM | 23 | 44.4 µM | > 65.6 µM | 38.1 µM | 23.5 µM | 31.2 µM |  |  |  |  |  |  |  |  |  |  | 
